Ends that are not written are not given here.
Test system: lactose intolerant individuals

Substance: secretin (HSDGTFTSELSRLRDSARLQRLLQGLV; ends and bridges not checked; UniProt P63298 33-59, looked up)
- time after infusion until some slight symptoms of lactose intolerance started again (one severely lactose intolerant individual, one-time infusion): about 3 months
- symptoms of lactose intolerance after consuming dairy and other lactose containing products (one-time intravenous infusion, 1 CU per kilogram of body weight over about 1 to 4 minutes, prolonged period of time after treatment, listed as secretion): without experiencing any of the symptoms of lactose intolerance

Reference: patent US6599882B1, “Secretin and secretin pharmaceuticals for treating lactose intolerance” (priority 1999, dated 2003)
